The values that follow are results of earlier work, collected in paper PMC9371267 (PLoS Biology, 2022).

Series [1] deals with GALRs. To be noted: Trp2 replaced with alanine; ref [4]; cited from earlier work. The text has this:
(§1) Activated GPCRs act as nucleotide exchange factors through direct interactions with heterotrimeric G-proteins. The C-terminal helix of mGαqiN fits into a hydrophobic pocket formed by TM 5–7 of GALR2 (Fig 1B). Phe228, Ile235, Asn239, and Tyr243 of mGαqiN form the principal interface with GALR2, and a salt bridge forms between Glu135^ICL2 of GALR2 and Arg32 of mGαqiN (Fig 1B). […] The modeled fra ...

Series [2] deals with GALR2 vs GALR1. The following applies: GALR2 over GALR1; ref [3]–[5]; cited from earlier work. The text has this: Its GPCR family receptors (from GALR1 to GALR3) are associated with different disease states and have been used as markers for certain cancer types. […] Agonists for GALR2 are be ...
For series [3], the system named is GALR2 and GALR3 vs GALR1. To be noted: ref [3],[14]; cited from earlier work. The text has this:
Phe264 and Leu266 in ECL3 contact Leu10^P and Trp2^P ...

Series [4] deals with GALR2. The following applies: endogenous ligands; ref [13]; cited from earlier work.
Description: as §1

For the molecule “Trp2^P of galanin with alanine: galanin with Trp2^P replaced with alanine (GATLNSAGYLLGPHAVGNHRSFSDKNGLTS; Galanin; UniProt P22466 33-62, looked up, variant W2A)”, the “binding to GALRs” value in series [1] is “prevents binding to GALRs”. Regarding “galanin^2–11: truncated peptide galanin^2–11”, in series [2], the “binds to GALR2 more tightly than GALR1” value is on record as “roughly 500 times”. For the same molecule, the receptor specificity result in series [3] was “specificity for GALR2 and GALR3 over GALR1”. Regarding “galanin-like peptide (APAHRGRGGWTLNSAGYLLGPVLHLPQMGDQDGKRETALEILDLWKAIDGLPYSHPPQPS; Galanin-like peptide; UniProt Q9UBC7 25-84, looked up) [GALP]”, the “activation of GALR2” value in series [4] is on record as “activate GALR2”.

B1: spexin (peptide, UniProt Q9BT56 27-116, looked up)
Spexin: APQRLLERRNWTPQAMLYLKGAQGRRFISDQSRRKDLSDRPLPERRSPNPQLLTIPEAATILLASLQKSPEDEEKNFDQTRFLEDSLLNW
modifications: Spexin
As to B1, the “activation of GALR2” value in series [4] is listed as “activate GALR2”.
